In US6407265B2, “Tin polyoxaalkanecarboxylates and compositions containing them” (priority 1998, dated 2002):
≈ marks a conversion by molar mass, not a printed value.

Experiments:
Type in all cases: cell-based, human
MCF-7 (mammary cancer) = conditions: in vitro, MCF-7 mammary cancer cell line
Description: (§1) The ID50 inhibition doses in ng/ml of the tested compounds are given in the table as well as those for some known reference compounds.

EVSA-T (mammary cancer) = conditions: in vitro, EVSA-T mammary cancer cell line
Description: as §1

WiDr (colon carcinoma) = conditions: in vitro, WiDr colon carcinoma cell line
IGROV (ovarian cancer) = conditions: in vitro, IGROV ovarian cancer cell line
M19 MEL (melanoma) = conditions: in vitro, M19 MEL melanoma cell line
A 498 (renal cancer) = conditions: in vitro, A 498 renal cancer cell line
[1] = system: H226 (non small cell lung cancer); conditions: in vitro, H226 non small cell lung cancer cell line

Row | Compound | ID50 inhibition dose MCF-7 (MCF-7 (mammary cancer)) [µg/mL] | ID50 inhibition dose EVSA-T (EVSA-T (mammary cancer)) [µg/mL] | ID50 inhibition dose WiDr (WiDr (colon carcinoma)) [µg/mL] | ID50 inhibition dose IGROV (IGROV (ovarian cancer)) [µg/mL] | ID50 inhibition dose M19 (M19 MEL (melanoma)) [µg/mL] | ID50 inhibition dose A498 (A 498 (renal cancer)) [µg/mL] | ID50 inhibition dose H226 [1] [µg/mL]
1 | O=c1[nH]cc(F)c(=O)[nH]1 [5-fluoro-uracil, reference compound] | 0.75 (≈ 5.77 µM) | 0.475 (≈ 3.65 µM) | 0.225 (≈ 1.73 µM) | 0.297 (≈ 2.28 µM) | 0.442 (≈ 3.4 µM) | 0.143 (≈ 1.1 µM) | 0.34 (≈ 2.61 µM)
2 | O=C([O][Sn]([c]1ccccc1)([c]1ccccc1)[c]1ccccc1)c1ccc2c(c1)OCCOCCOCCOCCOCCO2 [Compound 1, triphenyltin 4,7,10,13,16,19-hexaoxadicyclo[16.4.0]dicosa-1,3 (20),21-triene-1-carboxylate] | 0.015 | 0.012 | 0.013 | 0.03 | 0.016 | 0.043 | 0.037
3 | CCC[CH2][Sn]([CH2]CCC)([CH2]CCC)[O]C(=O)c1ccc2c(c1)OCCOCCOCCOCCOCCO2 [Compound 2, tri-n-butyltin 4,7,10,13,16,19-hexaoxadicyclo[16.4.0]dicosa-1,3(20),21-triene-1-carboxylate] | 0.035 | 0.006 | 0.011 | 0.03 | 0.07 | 0.097 | 0.1
4 | CCC[CH2][Sn+2][CH2]CCC.O=C([O-])c1ccc2c(c1)OCCOCCOCCOCCOCCO2.O=C([O-])c1ccc2c(c1)OCCOCCOCCOCCOCCO2 [Compound 3] | 0.155 | 0.128 | 0.781 | 0.26 | 0.219 | 0.282 | 0.281
5 | O=C([O][Sn]([c]1ccccc1)([c]1ccccc1)[c]1ccccc1)c1ccc2c(c1)OCCOCCOCCOCCO2 [Compound 5, triphenyltin 4,7,10,13,16-pentaoxadicyclo[13.4.0]cosa-1,3 (17),18-triene-1-carboxylate] | <0.003 | <0.003 | <0.003 | <0.003 | <0.003 | <0.003 | <0.003
6 | CCC[CH2][Sn]([CH2]CCC)([O]C(=O)c1ccc2c(c1)OCCOCCOCCOCCO2)[O]C(=O)c1ccc2c(c1)OCCOCCOCCOCCO2 [Compound 7, di-n-butyltin bis[4,7,10,13,16-pentaoxadicyclo[13.4.0]cosa-1,3(17),18-triene-1-carboxylate]] | 0.273 | 0.237 | 0.332 | 0.321 | 0.286 | 0.049 | 0.854
7 | CCC[CH2][Sn]([CH2]CCC)([O]C(=O)COCCOC)[O]C(=O)COCCOC [Compound 10, di-n-butyltin bis(3,6-diheptanoate)] | 0.06 | 0.062 | 0.379 | 0.128 | 0.115 | 0.134 | 0.161
8 | N.N.[Cl][Pt][Cl] [cisplatin, reference compound] | 0.699 | 0.422 | 0.967 | 0.169 | 0.558 | 2.253 | 3.269
9 | COc1cccc2c1C(=O)c1c(O)c3c(c(O)c1C2=O)C[C@@](O)(C(=O)CO)C[C@@H]3O[C@H]1C[C@H](N)[C@H](O)[C@H](C)O1 [doxorubicin, reference compound] | 0.01 (≈ 0.0184 µM) | 0.008 (≈ 0.0147 µM) | 0.011 (≈ 0.0202 µM) | 0.06 (≈ 0.11 µM) | 0.016 (≈ 0.0294 µM) | 0.09 (≈ 0.166 µM) | 0.199 (≈ 0.366 µM)
10 | COc1cc([C@@H]2c3cc4c(cc3[C@@H](O[C@@H]3O[C@@H]5CO[C@@H](C)O[C@H]5[C@H](O)[C@H]3O)[C@H]3COC(=O)[C@H]23)OCO4)cc(OC)c1O [etoposide, reference compound] | – | – | 0.15 (≈ 0.255 µM) | 0.58 (≈ 0.985 µM) | 0.505 (≈ 0.858 µM) | 1.314 (≈ 2.23 µM) | 3.934 (≈ 6.68 µM)
11 | CN(Cc1cnc2nc(N)nc(N)c2n1)c1ccc(C(=O)N[C@@H](CCC(=O)O)C(=O)O)cc1 [methotrexate, reference compound] | 0.018 (≈ 0.0396 µM) | 0.005 (≈ 0.011 µM) | <0.003 | 0.007 (≈ 0.0154 µM) | 0.023 (≈ 0.0506 µM) | 0.037 (≈ 0.0814 µM) | 2.287 (≈ 5.03 µM)
12 | bis[di-n-butyl(3,6,9-trioxadecanoato)tin]oxide [Compound 15] | <0.003 | <0.003 | 0.003 | <0.003 | <0.003 | <0.003 | <0.003
13 | bis[di-n-butyl(3,6-dioxaheptanoato)tin]oxide [Compound 11] | <0.003 | <0.003 | 0.006 | <0.003 | <0.003 | <0.003 | 0.005
